Data on one compound can be found in patent US20040225017A1, “Chloramine T based teat cleaner and related process” (priority 2003, published 2004).

Data set [1] can be described thus: pH at which the solution buffers out. The class given is physicochemical. The settings on record: in solution, residual on teat surface.
In a further data set the test system is teat area of animals. The settings on record: in vivo.

As to `Cc1ccc(S(=O)(=O)[N-]Cl)cc1.[Na+]` [CHT, Chloramine T], the “pH at which it naturally buffers out” value in data set [1] is reported as “about 9”. Also, the “irritation of the teat area” value with teat area of animals was “do not irritate the teat area”.
